Test results: ChEMBL document CHEMBL1125561, “Inhibition of human leukocyte elastase by N-substituted peptides containing alpha,alpha-difluorostatone residues at P1” (J Med Chem, 1992)
Numbered stars: 1 amine (or outer) side, 2 acyl side, 3 side chain; on linkers, the order of the positions; unused ones are H or OH. Square brackets hold non-standard residues; d marks the D form. Peptide text beside a SMILES is read from it. * marks the point of attachment. X1 = CC(C)[C@H](N[*:1])C(=O)C(F)(F)C(=O)[*:2]; N(Indan-2-yl)Gly = O=C(O)CNC1Cc2ccccc2C1; Cbz = O=C(OCc1ccccc1)*

Experiments:
Cricetinae gen. sp. [1] = assay: Inhibition of Elastase-induced pulmonary Hemorrhage(EPH) in Hamsters at a dose of 20 ug/mL; type: functional, Cricetulus griseus
Neutrophil elastase = target: T1, Neutrophil elastase (Homo sapiens, UniProt P08246); assay: Inhibitory activity against human leukocyte elastase (HLE) at pH 7.5
T1 sequence (P08246 whole entry): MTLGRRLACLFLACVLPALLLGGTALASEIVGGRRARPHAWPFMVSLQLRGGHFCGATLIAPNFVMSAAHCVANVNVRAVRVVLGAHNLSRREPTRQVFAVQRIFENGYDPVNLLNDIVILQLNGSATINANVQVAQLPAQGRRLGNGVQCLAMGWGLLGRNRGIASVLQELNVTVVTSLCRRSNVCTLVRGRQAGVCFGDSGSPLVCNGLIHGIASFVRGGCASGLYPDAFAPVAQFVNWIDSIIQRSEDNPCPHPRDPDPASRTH

Cricetinae gen. sp. [2] = assay: Inhibition of Elastase-induced pulmonary Hemorrhage(EPH) in Hamsters at a dose of 10 ug/mL; type: functional, Cricetulus griseus
Cricetinae gen. sp. [3] = assay: Inhibition of Elastase-induced pulmonary Hemorrhage(EPH) in Hamsters at a dose of 3 ug/mL; type: functional, Cricetulus griseus

Row | Structure (SMILES) | Max reduction (Cricetinae gen. sp. [1]) | Max reduction (Cricetinae gen. sp. [2]) | other results
1 | CCOC(=O)C(F)(F)C(=O)[C@H](CC(C)C)NC(=O)CN(C(=O)[C@@H](NC(=O)c1ccc(C(=O)NS(=O)(=O)c2ccc(Cl)cc2)cc1)C(C)C)C1Cc2ccccc2C1 | 55.2% |  | 
2 | COC(=O)[C@H](CCCCNC(=O)C(F)(F)C(=O)[C@@H](NC(=O)CN(C(=O)[C@@H](NC(=O)OCc1ccccc1)C(C)C)C1Cc2ccccc2C1)C(C)C)NC(C)=O | 7.6% |  | 
3 | CC(C)[C@H](NC(=O)OCc1ccccc1)C(=O)N(CC(=O)N[C@H](C(=O)C(F)(F)C(=O)O)C(C)C)C1Cc2ccccc2C1 | 55.8% |  | IC50 (Neutrophil elastase): > 5 µM
4 | CCOC(=O)C(F)(F)C(=O)[C@H](Cc1ccccc1)NC(=O)CN(C(=O)[C@@H](NC(=O)c1ccc(C(=O)NS(=O)(=O)c2ccc(Cl)cc2)cc1)C(C)C)C1Cc2ccccc2C1 |  | 12.2% | IC50 (Neutrophil elastase): > 5 µM
5 | CC(C)C(NC(=O)CN(C(=O)[C@@H](NC(=O)c1ccc(C(=O)NS(=O)(=O)c2ccc(Cl)cc2)cc1)C(C)C)C1Cc2ccccc2C1)C(=O)C(F)(F)F (stereo partly specified) |  | 90.5% | Max reduction (Cricetinae gen. sp. [3]): 58.1%
6 | CCOC(=O)C(F)(F)C(=O)[C@@H](NC(=O)CN(C(=O)[C@@H](NC(=O)c1ccc(C(=O)NS(=O)(=O)c2ccc(Cl)cc2)cc1)C(C)C)C1Cc2ccccc2C1)C(C)C |  | 94.6% | 
7 | CCOC(=O)C(F)(F)C(=O)[C@@H](NC(=O)CN(C(=O)[C@@H](NC(=O)OCc1ccccc1)C(C)C)C1Cc2ccccc2C1)C(C)C | 51.9% |  | 
8 | CCOC(=O)CNC(=O)CNC(=O)C(F)(F)C(=O)[C@@H](NC(=O)CN(C(=O)[C@@H](NC(=O)OCc1ccccc1)C(C)C)C1Cc2ccccc2C1)C(C)C (Cbz-V[N(Indan-2-yl)Gly][X1]GG-OEt) | 33.3% |  | 
